# From paper PMC8623647 (Pharmaceuticals, 2021)
# “And” between values parts separate entries of the source, which are not always exact repeats. Identical values can stand only once. “Also recorded” adds a separate entry of the source. Like-named read-outs stand apart in the source and are kept apart here.
# Legend:
# MAO-B [1] = target: MAO-B; parameters: method as in PMID 28577983; conditions: methoxylated chalcones previously reported ref 30; cited from earlier work
# [2] = parameters: method as in PMID 12667689; conditions: PAMPA-BBB ref 31; cited from earlier work
# [3] = BBB permeation by parallel artificial membrane permeability assay (PAMPA); assay type: in vitro ADME; conditions: for Prediction (BBB permeation): PAMPA-BBB class from Pe; for Papp: read-out: Experimental Pe
# Description: The CNS bioavailability of the lead candidates was further ascertained by PAMPA method [31].
# MAO-B [4] = target: T1, MAO-B (Homo sapiens, UniProt P27338); test: Reversibility of MAO-B inhibition by dialysis; assay type: biochemical; conditions: for MAO-B activity of dialyzed sample (AD): after dialysis; for MAO-B activity of dialyzed sample (AD) / MAO-B activity of undialyzed sample (AU): test compounds […], lazabemide 0.20 µM, pargyline 0.30 µM; for MAO-B activity of undialyzed sample (AU): preincubated 30 min
# T1 sequence (P27338 1-520): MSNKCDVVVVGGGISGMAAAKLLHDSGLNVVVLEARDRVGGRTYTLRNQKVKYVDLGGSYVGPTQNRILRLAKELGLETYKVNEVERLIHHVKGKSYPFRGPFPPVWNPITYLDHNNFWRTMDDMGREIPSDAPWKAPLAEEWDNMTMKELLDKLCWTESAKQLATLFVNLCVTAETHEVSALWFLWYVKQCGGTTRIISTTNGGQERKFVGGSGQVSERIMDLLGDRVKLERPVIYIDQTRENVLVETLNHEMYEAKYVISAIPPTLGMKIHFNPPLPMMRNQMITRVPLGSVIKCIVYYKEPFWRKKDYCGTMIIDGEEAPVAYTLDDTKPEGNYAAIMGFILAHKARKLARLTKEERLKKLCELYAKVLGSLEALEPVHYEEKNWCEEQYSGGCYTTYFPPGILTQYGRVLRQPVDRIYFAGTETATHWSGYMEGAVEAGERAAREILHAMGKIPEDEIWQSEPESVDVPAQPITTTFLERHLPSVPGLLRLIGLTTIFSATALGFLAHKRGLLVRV
# Description: The reversibilities of MAO-B inhibitions by TM1 and TM8 were assessed by dialysis. […] Reversibility patterns were determined by comparing the activities of dialyzed (AD) and undialyzed (AU) samples.
# recombinant human MAO-A = target: T2, recombinant human MAO-A (Homo sapiens, UniProt P21397); test: MAO-A enzyme inhibition (kynuramine substrate, 316 nm); conditions: for remaining activity at 10 µM: read-out: Residual Activity at 10 µM (%) MAO-A
# T2 sequence (P21397 1-527): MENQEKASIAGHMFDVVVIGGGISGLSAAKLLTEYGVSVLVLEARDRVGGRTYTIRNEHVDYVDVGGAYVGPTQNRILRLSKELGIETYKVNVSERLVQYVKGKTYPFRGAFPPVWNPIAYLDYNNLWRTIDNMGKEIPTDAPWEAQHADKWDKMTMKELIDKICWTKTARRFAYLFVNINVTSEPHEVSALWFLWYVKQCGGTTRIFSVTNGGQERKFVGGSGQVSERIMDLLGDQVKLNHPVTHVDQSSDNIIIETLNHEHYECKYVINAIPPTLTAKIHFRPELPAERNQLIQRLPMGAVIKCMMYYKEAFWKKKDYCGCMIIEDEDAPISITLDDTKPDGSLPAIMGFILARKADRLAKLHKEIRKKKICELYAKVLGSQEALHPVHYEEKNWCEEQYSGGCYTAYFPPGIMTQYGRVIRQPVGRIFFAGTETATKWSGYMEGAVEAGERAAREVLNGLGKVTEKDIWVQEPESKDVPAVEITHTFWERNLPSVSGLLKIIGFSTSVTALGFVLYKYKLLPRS
# Description: (§4) MAO activity assays were performed using recombinant human MAO-A or MAO-B.
# (§5) IC50 values were determined by measuring residual enzyme activities.
# MAO-B [5] = target: T1, MAO-B; test: MAO-B enzyme inhibition (benzylamine substrate, 250 nm); conditions: for SI (hMAO-B selectivity index): IC50(hMAO-A) divided by IC50(hMAO-B); for Times more potent than pargyline (MAO-B) / Times more potent than the reference drug lazabemide (MAO-B): ratio of MAO-B IC50 values; for remaining activity at 10 µM: read-out: Residual Activity at 10 µM (%) MAO-B
# Description: as §4, §5
# Vero cells [6] = test: Cytotoxicity by MTT assay; assay type: cell-based, African Green Monkey; conditions: 48 h, MTT assay; for IC50: Chlorocebus sabaeus, Vero, read-out: IC50 for Vero cell viability; for Concentrations resulting in high viability (>90%): Vero cells
# Description: (§1) African Green Monkey kidney cells (VERO cells) were used to evaluate the cytotoxic effects of TM1 and TM8. Cells were incubated with different doses (1 µg/mL to 500 µg/mL) of the two compounds for 48 h, and relative cell viabilities were determined by MTT assay.
# (§2) The cytotoxicities and ROS quenching abilities of the two lead compounds (TM1 and TM8) were evaluated as previously described.
# (§3) Figure 4 Effect of TM1 on Vero cell viability. (a) cell viability treated with TM1; (b) dose-response curve; (c) phase contrast microscope images of Vero cells treated with different concentrations of TM1. Cells were treated with TM1 for 48 h and cell viabilities were assessed by MTT assay as described in Section 4.
# as §3, with “Figure 5” for “Figure 4”, “of TM8” for “of TM1”, “with TM8;” for “with TM1;”, “of TM8.” for “of TM1.”, “with TM8” for “with TM1”
# [7] = Cytotoxicity by MTT assay; assay type: cell-based, African Green Monkey; conditions: African green monkey, Vero cells (kidney); Vero cells treated at effective concentrations; read-out: Cells remaining viable
# Description: as §1, §2, §3
# as §3, with “Figure 5” for “Figure 4”, “of TM8” for “of TM1”, “with TM8;” for “with TM1;”, “of TM8.” for “of TM1.”, “with TM8” for “with TM1”
# MAO-B [8] = target: T1, MAO-B; test: Kinetics study of MAO-B inhibition (Lineweaver-Burk and secondary plots); assay type: biochemical
# Description: Kinetic studies on MAO-B inhibitions were performed on TM1 and TM8.
# Vero cells [9] = test: ROS assay (H2O2-induced ROS levels); assay type: cell-based, African Green Monkey; conditions: compound at its IC50 value, exogenous H2O2
# Description: ROS increase vulnerability to neuronal damage by causing oxidative damage in the brain during neurodegenerative diseases.
# as §2
# Figure 6 Effects of TM1 (a) and TM8 (b) on H2O2-induced ROS levels. Vero cells (1 × 10^6 cells/mL) were pre-incubated with 100 μg/mL of 30% H2O2 and ROS production was evaluated immediately as described in Section 4.
structure (smiles),measurement,setting,value
COc1ccc(C(=O)/C=C/c2ccccc2)cc1 [Compound C1],Ki,MAO-B [1],700 ± 50 nM
same,SI for MAO-B,MAO-B [1],5.07
COc1ccc(C(=O)/C=C/c2ccc(Cl)cc2)cc1 [Compound C8],SI for MAO-B,MAO-B [1],3.89
"NCCc1ccc(O)c(O)c1 [Dopamine, reference compound]",Bibliography Pe,[2],2e-07 cm/s
same,Prediction (BBB permeation),[3],CNS− (CNS− (low BBB permeation predicted): Pe (10^−6 cm·s^−1) < 2.00)
"NCCNC(=O)c1ccc(Cl)cn1 [Lazabemide, reference compound]",MAO-B activity of dialyzed sample (AD),MAO-B [4],74.9%
same,MAO-B activity of undialyzed sample (AU),MAO-B [4],16.6%
"CCn1cc(C(=O)O)c(=O)c2cc(F)c(N3CCNC(C)C3)c(F)c21 (stereo not shown) [Lomefloxacin, reference compound]",Prediction (BBB permeation),[3],CNS− (CNS− (low BBB permeation predicted): Pe (10^−6 cm·s^−1) < 2.00)
same,Papp,[3]; PAMPA-BBB,1.22 ± 0.02 ×10⁻⁶ cm/s
"CN1C(C(=O)Nc2ccccn2)=C(O)c2ccccc2S1(=O)=O [Piroxicam, reference compound]",Bibliography Pe,[2],2.5e-06 cm/s
same,Experimental Pe,[3]; PAMPA-BBB,2.44 ± 0.26 ×10^−6 cm·s^−1
same,Prediction (BBB permeation),[3],CNS± (CNS± (BBB permeation uncertain): Pe (10^−6 cm·s^−1) from 2.00 to 4.00)
"CC(=O)[C@H]1CC[C@H]2[C@@H]3CCC4=CC(=O)CC[C@]4(C)[C@H]3CC[C@]12C [Progesterone, reference compound]",Prediction (BBB permeation),[3],CNS+ (CNS+ (high BBB permeation predicted): Pe (10^−6 cm·s^−1) > 4.00)
CSc1ccc(C(=O)/C=C/c2ccccc2)cc1 [TM1],IC50,recombinant human MAO-A,13.8 ± 0.05 µM
same,remaining activity at 10 µM,recombinant human MAO-A,62.6 ± 9.7%
same,Blood-brain barrier permeability in words,[3]; PAMPA,high blood-brain barrier permeabilities
same,Prediction (BBB permeation),[3],CNS+ (CNS+ (high BBB permeation predicted): Pe (10^−6 cm·s^−1) > 4.00)
same,Papp,[3]; PAMPA-BBB,15.5 ± 0.33 ×10⁻⁶ cm/s
same,IC50,MAO-B [5],17 ± 3 nM
same,SI (hMAO-B selectivity index),MAO-B [5],812 and 811.8
same,Times more potent than pargyline (MAO-B),MAO-B [5],1.6 times
same,Times more potent than the reference drug lazabemide (MAO-B),MAO-B [5],3.7 times
same,remaining activity at 10 µM,MAO-B [5],13.2 ± 0.7%
same,IC50,Vero cells [6]; converted from µg/mL,948 µM
same,IC50,Vero cells [6],242 µg/mL
same,Concentrations resulting in high viability (>90%),Vero cells [6],< 250 µg/mL
same,Concentrations resulting in high viability (>90%),Vero cells [6]; converted from µg/mL,< 983.1 µM
same,viability at 48 h,[7],> 90%
same,Inhibitor type for MAO-B,MAO-B [8]; Lineweaver-Burk plots,competitively inhibited MAO-B; also recorded: competitive
same,Ki,MAO-B [8]; from secondary plots of slopes vs. inhibitor concentrations,11 ± 1 nM
same,Effect on H2O2-induced intracellular ROS levels,Vero cells [9],significantly reduced reactive oxygen species (ROS) levels; also recorded: appreciably lower ROS levels; also recorded: mitigated H2O2-induced increases in ROS levels
same,MAO-B activity of dialyzed sample (AD),MAO-B [4],68.1%
same,Reversibility of MAO-B inhibition,MAO-B [4]; dialysis-based method,reversible MAO-B inhibitors
same,MAO-B activity of undialyzed sample (AU),MAO-B [4],24.9%
CSc1ccc(C(=O)/C=C/c2ccc(O)cc2)cc1 [TM2],IC50,recombinant human MAO-A,7.45 ± 0.25 µM
same,remaining activity at 10 µM,recombinant human MAO-A,48.3 ± 2.4%
same,Prediction (BBB permeation),[3],CNS+ (CNS+ (high BBB permeation predicted): Pe (10^−6 cm·s^−1) > 4.00)
same,Papp,[3]; PAMPA-BBB,13.3 ± 0.8 ×10⁻⁶ cm/s
same,IC50,MAO-B [5],21 ± 3 nM
same,SI (hMAO-B selectivity index),MAO-B [5],354.8
same,Times more potent than pargyline (MAO-B),MAO-B [5],1.3 times
same,Times more potent than the reference drug lazabemide (MAO-B),MAO-B [5],3.0 times
same,remaining activity at 10 µM,MAO-B [5],-5.7 ± 5.3%
